US20130065883A1 (Centro Nacional de Investigaceiones Oncologicas (CNIO), priority 2010, published 2013)
Where two headings read alike, the source gives them in different places.

Columns and labels:
[1] = molecular target: T1, PIM-2 (Homo sapiens, UniProt Q9P1W9); assay: PIM-2 biochemical assay (ADP Hunter); details: semi-quantitative class; read-out: PIM2 IC50;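 also: recombinant N-terminally His-tagged human enzyme, kinase activity quantified by detection of ADP formed as the direct reaction product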
T1 construct: histidine tag (N); made in house

[2] = molecular target: T2, PIM-1 (Homo sapiens, UniProt P11309); assay: PIM-1 biochemical assay (ADP Hunter); details: semi-quantitative class; read-out: PIM1 IC50;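 also: recombinant human PIM-1 carrying a C-terminal His tag, kinase activity quantified via ADP formed as the direct enzymatic product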
T2 construct: histidine tag (C); made in house

[3] = molecular target: T3, PIM-3 (Homo sapiens, UniProt Q86V86); assay: PIM-3 biochemical assay (ADP Hunter); details: read-out: PIM3 IC50;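 also: kinase activity read out as the quantity of ADP generated by the enzyme reaction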
T3 construct: purchased Millipore 14-738

[4] = molecular target: T4, FLT3 (Homo sapiens, UniProt P36888); assay: FLT3 biochemical assay (ADP Hunter); details: semi-quantitative class;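 also: FLT3 enzymatic activity quantified through the ADP produced by the kinase reaction, detected with an ADP Hunter readout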
T4 sequence (P36888 27-993): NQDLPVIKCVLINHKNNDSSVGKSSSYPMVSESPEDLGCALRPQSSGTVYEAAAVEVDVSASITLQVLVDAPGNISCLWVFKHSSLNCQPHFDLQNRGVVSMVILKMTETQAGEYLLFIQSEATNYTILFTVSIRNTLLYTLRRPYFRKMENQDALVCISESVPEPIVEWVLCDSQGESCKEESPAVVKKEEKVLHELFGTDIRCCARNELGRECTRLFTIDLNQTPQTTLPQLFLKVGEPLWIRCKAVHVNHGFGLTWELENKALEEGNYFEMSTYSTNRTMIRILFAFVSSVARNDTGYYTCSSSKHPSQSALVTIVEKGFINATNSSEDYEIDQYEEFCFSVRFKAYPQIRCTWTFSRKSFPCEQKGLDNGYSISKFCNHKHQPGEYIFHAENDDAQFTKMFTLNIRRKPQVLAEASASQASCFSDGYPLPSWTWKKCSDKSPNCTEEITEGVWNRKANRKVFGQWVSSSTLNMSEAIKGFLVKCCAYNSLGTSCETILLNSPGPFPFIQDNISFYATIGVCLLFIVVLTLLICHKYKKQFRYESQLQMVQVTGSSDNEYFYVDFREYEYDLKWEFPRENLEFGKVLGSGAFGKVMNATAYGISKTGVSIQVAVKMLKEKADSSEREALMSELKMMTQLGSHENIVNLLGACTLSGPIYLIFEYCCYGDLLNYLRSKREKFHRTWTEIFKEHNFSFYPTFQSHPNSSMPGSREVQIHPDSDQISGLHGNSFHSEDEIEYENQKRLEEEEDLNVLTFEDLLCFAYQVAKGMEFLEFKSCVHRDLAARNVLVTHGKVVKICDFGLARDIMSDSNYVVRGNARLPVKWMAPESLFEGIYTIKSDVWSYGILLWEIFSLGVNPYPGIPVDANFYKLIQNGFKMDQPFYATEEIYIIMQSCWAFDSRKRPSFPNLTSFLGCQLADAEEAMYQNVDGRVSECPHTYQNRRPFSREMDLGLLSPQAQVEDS

T1 sequence (Q9P1W9 whole entry): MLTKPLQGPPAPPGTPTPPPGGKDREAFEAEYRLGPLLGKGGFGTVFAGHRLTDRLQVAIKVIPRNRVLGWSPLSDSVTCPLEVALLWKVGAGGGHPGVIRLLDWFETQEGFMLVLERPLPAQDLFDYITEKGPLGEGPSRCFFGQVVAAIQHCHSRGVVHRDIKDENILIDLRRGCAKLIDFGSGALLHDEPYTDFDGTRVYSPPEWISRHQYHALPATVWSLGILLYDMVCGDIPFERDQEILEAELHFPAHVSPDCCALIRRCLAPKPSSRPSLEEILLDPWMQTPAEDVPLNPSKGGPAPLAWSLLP
T2 sequence (P11309 whole entry): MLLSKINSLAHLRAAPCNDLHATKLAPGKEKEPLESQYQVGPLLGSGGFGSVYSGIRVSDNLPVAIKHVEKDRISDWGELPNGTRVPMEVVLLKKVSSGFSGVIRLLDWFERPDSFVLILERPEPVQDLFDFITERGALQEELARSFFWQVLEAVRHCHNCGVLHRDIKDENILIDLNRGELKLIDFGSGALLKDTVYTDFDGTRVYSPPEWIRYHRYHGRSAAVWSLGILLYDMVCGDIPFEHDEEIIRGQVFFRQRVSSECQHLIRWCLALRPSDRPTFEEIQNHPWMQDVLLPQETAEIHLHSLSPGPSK

SMILES | IC50 [1] | IC50 [2] | IC50 ([3]; actual IC50 value in parentheses) | IC50 ([3]; semi-quantitative class) | IC50 [4]
COc1ccc(-n2nnc3ccc(N4CCCCCC4)nc32)cc1 [2-01] | > 1000 nM | – | – | – | –
COc1ccc(-n2nnc3ccc(NCc4ccc(F)cc4)nc32)cc1 [2-02, (4-Fluoro-benzyl)-[3-(4-methoxy-phenyl)-3H-[1,2,3]triazolo[4,5-b]pyridin-5-yl]amine] | > 1000 nM | – | – | – | –
COc1ccc(-n2nnc3ccc(NCc4cccc(Cl)c4)nc32)cc1 [2-03] | > 1000 nM | > 1000 nM | – | – | –
Oc1ccc(-n2nnc3ccc(NCc4ccc(F)cc4)nc32)cc1 [2-04, 4-[5-(4-Fluoro-benzylamino)-[1,2,3]triazolo[4,5-b]pyridin-3-yl]-phenol] | 100 to 1000 nM | – | 51 nM | < 100 nM | > 1000 nM
Oc1ccc(-n2nnc3ccc(N4CCCCCC4)nc32)cc1 [2-05] | – | – | – | – | > 1000 nM
CCOC(=O)c1cc2nnn(-c3ccc(OC)cc3)c2nc1NCc1ccc(F)cc1 [2-06] | > 1000 nM | > 1000 nM | – | – | –
CCOC(=O)c1cc2nnn(-c3ccc(OC)cc3)c2nc1N1CCCCCC1 [2-07] | > 1000 nM | > 1000 nM | – | – | –
FC(F)(F)Oc1cccc(-n2nnc3ccc(NCCc4cccnc4)nc32)c1 [2-08] | > 1000 nM | – | – | – | –
CCCNc1ccc2nnn(-c3cccc(OC(F)(F)F)c3)c2n1 [2-09] | > 1000 nM | – | – | – | –
FC(F)(F)Oc1cccc(-n2nnc3ccc(NC4CCOCC4)nc32)c1 [2-10] | > 1000 nM | – | – | – | –
c1ccc(CCNc2ccc3nnn(-c4ccccc4)c3n2)cc1 [2-11] | > 1000 nM | – | – | – | –
Fc1ccc(-n2nnc3ccc(N4CCCCCC4)nc32)cc1 [2-12] | > 1000 nM | – | – | – | –
Fc1ccc(-n2nnc3ccc(N4CCOCC4)nc32)cc1 [2-13] | > 1000 nM | – | – | – | –
CCOC(=O)c1cc2nnn(-c3ccc(OC)cc3)c2nc1NCC1CCN(C)CC1 [2-14, 3-(4-Methoxy-phenyl)-5-[(1-methyl-piperidin-4-ylmethyl)-amino]-3H-[1,2,3]triazolo[4,5-b]pyridine-6-carboxylic acid ethyl ester] | > 1000 nM | > 1000 nM | – | – | –
CCOC(=O)c1cc2nnn(-c3ccc(O)cc3)c2nc1NCc1ccc(F)cc1 [2-15] | > 1000 nM | > 1000 nM | – | – | –
CCOC(=O)c1cc2nnn(-c3ccc(O)cc3)c2nc1N1CCCCCC1 [2-16] | > 1000 nM | > 1000 nM | – | – | –
COc1cccc(CCNc2ccc3nnn(-c4ccc(F)cc4)c3n2)c1OC [2-17] | > 1000 nM | > 1000 nM | – | – | –
NS(=O)(=O)c1ccc(CCNc2ccc3nnn(-c4ccccc4)c3n2)cc1 [2-18] | > 1000 nM | – | – | – | –
CN1CCC(CNc2ccc3nnn(-c4cccc(OC(F)(F)F)c4)c3n2)CC1 [2-19, (1-Methyl-piperidin-4-ylmethyl)-[3-(3-trifluoromethoxy-phenyl)-3H-[1,2,3]triazolo[4,5-b]pyridin-5-yl]-amine] | > 1000 nM | – | – | 100 to 1000 nM | > 1000 nM
FC(F)(F)Oc1cccc(-n2nnc3ccc(NCC4CC4)nc32)c1 [2-20] | > 1000 nM | 100 to 1000 nM | – | – | –

SMILES | IC50 [1] | IC50 [2] | IC50 ([3]; actual IC50 value in parentheses) | IC50 ([3]; semi-quantitative class) | IC50 [4]
CN(C)C(=O)CN1CCC(CNc2ccc3nnn(-c4cccc(OC(F)(F)F)c4)c3n2)CC1 [2-22] | > 1000 nM | – | – | – | –
CC(=O)Nc1ccc(-n2nnc3ccc(NCC4CCN(C)CC4)nc32)cc1 [2-23] | > 1000 nM | > 1000 nM | – | – | –
CCCNc1ccc2nnn(-c3ccc(O)cc3)c2n1 [2-24] | > 1000 nM | – | – | – | –
O=C(CN1CCC(CNc2ccc3nnn(-c4cccc(OC(F)(F)F)c4)c3n2)CC1)C1CC1 [2-26] | > 1000 nM | – | – | – | –
FC(F)(F)Oc1cccc(-n2nnc3ccc(NCC4CCN(C5CC5)CC4)nc32)c1 [2-27] | > 1000 nM | 100 to 1000 nM | – | – | –
FCCN1CCC(CNc2ccc3nnn(-c4cccc(OC(F)(F)F)c4)c3n2)CC1 [2-28] | > 1000 nM | – | – | > 1000 nM | > 1000 nM
O=CNCCN1CCN(c2ccc3nnn(-c4cccc(OC(F)(F)F)c4)c3n2)CC1 [2-29] | > 1000 nM | 100 to 1000 nM | – | – | –
COCCN1CCC(CNc2ccc3nnn(-c4cccc(OC(F)(F)F)c4)c3n2)CC1 [2-30] | > 1000 nM | – | – | – | > 1000 nM
FC(F)(F)Oc1cccc(-n2nnc3ccc(NCC4CCN(CC5CC5)CC4)nc32)c1 [2-31] | > 1000 nM | – | – | – | > 1000 nM
CC(C)(C)OC(=O)N1CCC(Nc2ccc3nnn(-c4cccc(OC(F)(F)F)c4)c3n2)CC1 [2-33] | > 1000 nM | > 1000 nM | – | – | –
CC(C)(C)OC(=O)N1CCN(CCNc2ccc3nnn(-c4cccc(OC(F)(F)F)c4)c3n2)CC1 [2-34] | > 1000 nM | > 1000 nM | – | – | –
O=C1CN(CCNc2ccc3nnn(-c4cccc(OC(F)(F)F)c4)c3n2)CCN1 [2-35] | > 1000 nM | 100 to 1000 nM | – | – | –
FC(F)(F)Oc1cccc(-n2nnc3ccc(NCCN4CCNCC4)nc32)c1 [2-36] | > 1000 nM | 100 to 1000 nM | – | – | 100 to 1000 nM
OCCNc1ccc2nnn(-c3cccc(OC(F)(F)F)c3)c2n1 [2-37] | > 1000 nM | 100 to 1000 nM | – | – | –
OCCCNc1ccc2nnn(-c3cccc(OC(F)(F)F)c3)c2n1 [2-38] | > 1000 nM | 100 to 1000 nM | – | – | > 1000 nM
CN(C)CCNc1ccc2nnn(-c3cccc(OC(F)(F)F)c3)c2n1 [2-39] | > 1000 nM | > 1000 nM | – | – | –
NC(=O)CNc1ccc2nnn(-c3cccc(OC(F)(F)F)c3)c2n1 [2-40] | > 1000 nM | > 1000 nM | – | – | –
CC(=O)NCCNc1ccc2nnn(-c3cccc(OC(F)(F)F)c3)c2n1 [2-41] | > 1000 nM | > 1000 nM | – | – | –
NC(=O)CCNc1ccc2nnn(-c3cccc(OC(F)(F)F)c3)c2n1 [2-42] | > 1000 nM | 100 to 1000 nM | – | – | –
FC(F)(F)Oc1cccc(-n2nnc3ccc(N4CCC5(CC4)CNC5)nc32)c1 [2-43] | > 1000 nM | 100 to 1000 nM | – | – | > 1000 nM

SMILES | IC50 [1] | IC50 [2] | IC50 ([3]; actual IC50 value in parentheses) | IC50 ([3]; semi-quantitative class) | IC50 [4]
CNC1CCN(c2ccc3nnn(-c4cccc(OC(F)(F)F)c4)c3n2)CC1 [2-44] | > 1000 nM | – | – | 100 to 1000 nM | > 1000 nM
FC(F)(F)Oc1cccc(-n2nnc3ccc(N4CCC5(CCNCC5)CC4)nc32)c1 [2-45] | > 1000 nM | – | – | – | > 1000 nM
FC(F)(F)Oc1cccc(-n2nnc3ccc(N4CC5CNCC5C4)nc32)c1 (stereo not shown) [2-46] | > 1000 nM | – | – | – | > 1000 nM
O=C1NCCN1CCNc1ccc2nnn(-c3cccc(OC(F)(F)F)c3)c2n1 [2-48] | > 1000 nM | 100 to 1000 nM | – | – | –
CNCCCNc1ccc2nnn(-c3cccc(OC(F)(F)F)c3)c2n1 [2-50] | > 1000 nM | 100 to 1000 nM | – | – | –
O=C1NCCC12CCN(c1ccc3nnn(-c4cccc(OC(F)(F)F)c4)c3n1)CC2 [2-51] | > 1000 nM | > 1000 nM | – | – | –
O=C1CNC2(CCN(c3ccc4nnn(-c5cccc(OC(F)(F)F)c5)c4n3)CC2)C1 [2-52] | > 1000 nM | > 1000 nM | – | – | –
FC(F)(F)Oc1cccc(-n2nnc3ccc(N4CCC5(CCNC5)CC4)nc32)c1 [2-60] | > 1000 nM | – | – | – | > 1000 nM
FC(F)(F)Oc1cccc(-n2nnc3ccc(N4CCC5(CCNCC5)C4)nc32)c1 [2-62] | > 1000 nM | – | – | 100 to 1000 nM | > 1000 nM
FC(F)(F)Oc1cccc(-n2nnc3ccc(N4CCC5(CCNC5)C4)nc32)c1 (stereo not shown) [2-64] | > 1000 nM | 100 to 1000 nM | – | – | > 1000 nM
Nc1ccc(-n2nnc3ccc(NCC4CCNCC4)nc32)cn1 [2-71] | > 1000 nM | – | – | – | 100 to 1000 nM
CS(=O)(=O)N1CCN(c2ccc3nnn(-c4cccc(OC(F)(F)F)c4)c3n2)CC1 [2-72] | > 1000 nM | 100 to 1000 nM | – | > 1000 nM | –
CC(C)CN1CCC(CNc2ccc3nnn(-c4cccc(OC(F)(F)F)c4)c3n2)CC1 [2-74] | > 1000 nM | 100 to 1000 nM | – | – | > 1000 nM
FC(F)(F)Oc1cccc(-n2nnc3ccc(NCC4CCN(CC5CCOCC5)CC4)nc32)c1 [2-75] | > 1000 nM | 100 to 1000 nM | – | – | > 1000 nM
FC(F)(F)Oc1cccc(-n2nnc3cc(Cl)c(NCC4CC5(CCNCC5)C4)nc32)c1 [2-77] | > 1000 nM | 100 to 1000 nM | – | – | > 1000 nM
FC(F)(F)c1csc(-n2nnc3ccc(NCC4CCNCC4)nc32)n1 [2-88] | > 1000 nM | – | – | – | > 1000 nM
CCN1CCOC2(CCN(c3ccc4nnn(-c5cccc(OC(F)(F)F)c5)c4n3)CC2)C1 [2-90] | > 1000 nM | > 1000 nM | – | – | 100 to 1000 nM
CCN1CCC2(CC1)CC(CNc1nc3c(cc1Cl)nnn3-c1cccc(OC(F)(F)F)c1)C2 [2-91] | > 1000 nM | 100 to 1000 nM | – | – | 100 to 1000 nM
COc1cc(NC2CCOCC2)nc2c1nnn2-c1cccc(N(C)C)c1 [2-93] | – | 100 to 1000 nM | – | – | > 1000 nM
